Key:
[1] = RP-HPLC retention on Cosmosil Cholester column, buffer pH 7.4-acetonitrile; format: physicochemical; conditions: for log kw, Cholester: extrapolated to buffer pH 7.4 as mobile phase, 25 °C; for s Cholester: slope of Soczewiński-Wachtmeister equation, acetonitrile φ 0.4–0.6
Method: (§1) Retention parameters reported as the log k values were calculated by the expression:(1) logk=log(tR−t0)/t0 where tR and t0 are the retention times of the solute and a non-retained compound (citric acid), respectively. They were used to calculate the log kw values, i.e., logarithms of retention parameter in the buffer as the mobile phase. For this purpose the Soczewiński-Wachtmeister’s equation was used:log k = log kw − sφ(2) where φ is the volume fraction of organic modifier in the mobile phase; k and kw are retention parameters corresponding to mixed effluent and buffer as the mobile phase, respectively. The slope s is characteristic of a given solute and chromatographic system. Strong linear relationships between log k and φ values were found for all the compounds in the range of effluent composition examined (R^2 > 0.9). The log kw values determined for the ODS (log kw, ODS), IAM (log kw, IAM) and Cholester (log kw, Cholester) columns were intercorrelated and the following linear relationships with a very good statistical quality were obtained:log kw, ODS = 0.691(± 0.094) + 0.982(± 0.044) log kw, IAM(3) SD = 0.257; R^2 = 0.8880; N = 65 log kw, ODS = 0.911(± 0.062) + 0.765(± 0.025) log kw, Cholester(4) SD = 0.192; R^2 = 0.9371; N = 65 log kw, IAM = 0.356(± 0.073) + 0.721(± 0.029) log kw, Cholester(5) SD = 0.224; R^2 = 0.9068; N = 65
(§2) Shimadzu Vp (Shimadzu, Izabelin, Poland) liquid chromatographic system equipped with LC 10AT pump, SPD 10A UV-Vis detector, SCL 10A system controller, CTO-10 AS chromatographic oven and Rheodyne injector valve with a 20 µL loop was applied in HPLC measurements. Three stationary phases were employed: • Purosphere RP-18e (ODS), 125 × 4 mm i.d., 5 µm (Merck); • IAM.PC.DD2 100 × 4.6 mm i.d., 10 µm (Regis Chemicals Company, Morton Grove, IL, USA); • Cosmosil Cholester, 75 × 2 mm i.d., 2.5 µm (Genore, Warsaw, Poland).
(§3) As mobile phases buffer-acetonitrile mixtures were used. The buffer was prepared from 0.01 mol L^−1 solutions of Na2HPO4 and citric acid and the pH 7.4 value was fixed before mixing with organic modifier. With the ODS column acetonitrile concentration in the effluent, expressed as a volume fraction (φ, v/v), was changed in the range 0.3–0.6, with the constant step of 0.1. The flow rate was 1 mL min^−1. With the IAM column acetonitrile concentration was changed in the range 0.2–0.5, also with the constant step of 0.1 and the flow rate was 1.3 mL min^−1. With the Cosmosil Cholester column acetonitrile concentration was changed in the range 0.4–0.6, with the constant step of 0.05 and the flow rate was 0.4 mL min^−1. Samples of test compounds were dissolved in acetonitrile—c.a. 0.005 mg mL^−1. […] They were detected under UV light at 210 and 254 nm. All measurements were carried out at 25 °C. The dead time values were measured from non-retained compound (citric acid) peaks. All reported log kw values are the average of at least three independent measurements. The extrapolated retention coefficients (logs kw) achieved by HPLC on ODS, IAM and Cholester stationary phases were used for modelling the log BB permeation of 65 drug-like compounds employed as a whole test set (Table 1).

[2] = design: method as in PMID 24157086, PMID 25528370; conditions: cited from earlier work
[3] = RP-HPLC retention on Purosphere RP-18e (ODS) column, buffer pH 7.4-acetonitrile; format: physicochemical; conditions: for log kw, ODS: extrapolated to buffer pH 7.4 as mobile phase, 25 °C; for s ODS: slope of Soczewiński-Wachtmeister equation, acetonitrile φ 0.3–0.6
Method: as §1, §2, §3

[4] = RP-HPLC retention on IAM.PC.DD2 (immobilized artificial membrane) column, buffer pH 7.4-acetonitrile; format: physicochemical; conditions: for log kw, IAM: extrapolated to buffer pH 7.4 as mobile phase, 25 °C; for s IAM: slope of Soczewiński-Wachtmeister equation, acetonitrile φ 0.2–0.5
Method: as §1, §2, §3

[5] = design: method as in PMID 16331406; conditions: rats; BB = Cbrain/Cplasma; training set; cited from earlier work
[6] = system: Herpes simplex virus type 1; design: method as in PMID 30807815; conditions: cited from earlier work
human cancer cells = system: human cancer cells; design: method as in doi:10.1016/j.arabjc.2016.12.024, PMID 24126095; conditions: cited from earlier work
erythrocytes = system: erythrocytes; design: method as in PMID 30807815; conditions: cited from earlier work
normal cells = system: normal cells; design: method as in doi:10.1016/j.arabjc.2016.12.024, PMID 24126095; conditions: cited from earlier work
normal Vero cells = system: normal Vero cells; design: method as in PMID 30807815; conditions: cited from earlier work

Row | SMILES | log kw, Cholester [1] | s Cholester [1] | log kw, ODS [3] | s ODS [3] | log kw, IAM [4] | s IAM [4] | log BBexp. [5] | antiproliferative activities in human cancer cells (human cancer cells) | toxic effects for normal cells (normal cells) | further results
1 | O=c1c(Cc2ccccc2Cl)nnc2n1CCN2c1ccccc1 [Compound 42] | 2.83 | 4.71 | 3.28 | 5.10 | 2.34 | 4.78 | – | – | – | antinociceptive effect in mice [2]: strongest antinociceptive effect
2 | CN1Cc2c(C(=O)OC(C)(C)C)ncn2-c2ccsc2C1=O [Compound 99632-94-7] | – | – | – | – | – | – | −0.25 | – | – | –
3 | CCc1nnc2n(c1=O)CCN2c1ccc(Cl)c(Cl)c1 [Compound 6] | 2.05 | 3.61 | 2.53 | 4.49 | 1.85 | 4.11 | – | significant antiproliferative activities | less toxic effects | potency against Herpes simplex virus type 1 [6]: remarkable concentration-dependent potency; oxidatively-induced haemolysis of erythrocytes (erythrocytes): inhibiting the oxidatively-induced haemolysis; toxicity to normal Vero cells (normal Vero cells): low toxicity
4 | CN1CCC[C@H]1c1cccnc1 [Compound 54-11-5] | – | – | – | – | – | – | 0.56 | – | – | –
5 | COC(=O)Cc1nnc2n(c1=O)CCN2c1ccc(C)cc1 [Compound 8] | 1.29 | 2.75 | 1.90 | 3.82 | 1.33 | 3.33 | – | – | – | antinociceptive effect in mice [2]: strongest antinociceptive effect
6 | Brc1cc(Br)c(NC2=NCCN2)c(Br)c1 [Compound 38941-33-2] | – | – | – | – | – | – | 0.58 | – | – | –
7 | NC(N)=Nc1nc(-c2ccccc2)cs1 [Compound 2507-81-5] | – | – | – | – | – | – | −0.18 | – | – | –
8 | CCc1nnc2n(c1=O)CCN2c1ccc(C)cc1 [Compound 2] | 0.57 | 1.84 | 1.30 | 3.12 | 1.00 | 2.88 | – | significant antiproliferative activities | less toxic effects | –
9 | CCc1nnc2n(c1=O)CCN2c1cccc(Cl)c1 [Compound 4] | 0.62 | 1.82 | 1.33 | 3.15 | 0.84 | 2.60 | – | significant antiproliferative activities | less toxic effects | –
10 | COc1ccc2nc([S+]([O-])Cc3ncc(C)c(OC)c3C)[nH]c2c1 (stereo not shown) [Compound 73590-58-6] | – | – | – | – | – | – | −0.82 | – | – | –
11 | CCc1nnc2n(c1=O)CCN2c1ccc(Cl)cc1 [Compound 5] | 1.18 | 2.61 | 1.78 | 3.56 | 1.24 | 3.25 | – | significant antiproliferative activities | less toxic effects | –
12 | CCOc1ccc(N2CCn3c2nnc(Cc2ccccc2)c3=O)cc1 [Compound 51] | 2.68 | 4.55 | 3.28 | 5.61 | 2.11 | 4.51 | – | – | – | antinociceptive effect in mice [2]: strongest antinociceptive effect
13 | O=c1c(CCc2ccccc2)nnc2n1CCN2c1ccccc1Cl [Compound 63] | 1.94 | 3.66 | 2.46 | 4.44 | 1.81 | 4.08 | – | significant antiproliferative activities | less toxic effects | –
14 | CN1C(=O)CC[C@H]1c1cccnc1 [Compound 486-56-6] | – | – | – | – | – | – | 0.04 | – | – | –
15 | CC(C)(C)OC(=O)c1ncn2c1[C@@H]1CCCN1C(=O)c1c(Br)cccc1-2 [Compound 84379-13-5] | – | – | – | – | – | – | −0.09 | – | – | –
16 | Cc1ncc2n1-c1ccc(Cl)cc1C(c1ccccc1F)=NC2 [Compound 59467-70-8] | – | – | – | – | – | – | 0.32 | – | – | –
17 | COc1ccccc1N1CCn2c1nnc(-c1ccco1)c2=O [Compound 22] | 1.22 | 2.68 | 1.67 | 3.48 | 1.11 | 3.02 | – | significant antiproliferative activities | less toxic effects | –
18 | O=c1c(-c2ccccc2)nnc2n1CCN2c1ccc(Cl)cc1 [Compound 39] | 3.19 | 5.30 | 3.41 | 5.20 | 2.57 | 5.32 | – | significant antiproliferative activities | less toxic effects | –
19 | Clc1ccc(NC2=NCCN2)c(Cl)c1 [Compound 23830-88-8] | – | – | – | – | – | – | 0.16 | – | – | –
20 | Brc1cccc(Br)c1NC1=NCCN1 [Compound 4205-93-0] | – | – | – | – | – | – | 0.33 | – | – | –
21 | c1cncc([C@@H]2CCCN2)c1 [Compound 494-97-3] | – | – | – | – | – | – | 0.32 | – | – | –
22 | Cc1ccccc1N1CCn2c1nnc(-c1ccco1)c2=O [Compound 19] | 1.20 | 2.78 | 1.74 | 3.48 | 0.96 | 2.72 | – | significant antiproliferative activities | less toxic effects | –
23 | Clc1cccc(Cl)c1NC1=NCCN1 [Compound 4205-90-7] | – | – | – | – | – | – | 0.19 | – | – | –

Source: article PMC7037052, “Predicting the Blood-Brain Barrier Permeability of New Drug-Like Compounds via HPLC with Various Stationary Phases” (Molecules, 2020)
